Measurements reported in BigSolDB 2.1.

C(=C\c1ccccc1)/CN1CCN(C(c2ccccc2)c2ccccc2)CC1
solubility (mole fraction)
Settings | 288.5 K | 293.5 K | 298.4 K | 303.3 K | 308.3 K | 313.2 K
in acetonitrile | 0.000877 | 0.00105 | 0.00137 | 0.00158 | 0.00204 | 0.00273
in isopropanol | 0.00064 | 0.000811 | 0.000994 | 0.00127 | 0.00165 | 0.00208
in n-butanol | 0.00273 | 0.00351 | 0.00412 | 0.00499 | 0.00607 | 0.00804
in n-butyl acetate | 0.0153 | 0.0197 | 0.0226 | 0.0272 | 0.0337 | 0.0425
